Measured values taken from patent US20090018134A1, “Compounds - 945” (AstraZeneca AB, priority 2007, published 2009).

target: T1, mTOR (Homo sapiens, UniProt P42345); experiment: In Vitro mTOR Kinase Assay (Echo), Test (a)(ii); assay type: biochemical; conditions: table of enzyme assay Test (a)(ii); read-out: Test (a)(ii) IC50
T1 construct: FLAG; made in house
In short: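 AlphaScreen read-out: biotinylated substrate phosphorylation was detected with anti-p70 S6K (T389) 1A5 antibody, Protein A acceptor and streptavidin donor beads after overnight dark incubation at room temperature. Enzyme was FLAG-mTOR 1362-2549 from stable HEK293 cells.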

T1 sequence (P42345 1362-2549): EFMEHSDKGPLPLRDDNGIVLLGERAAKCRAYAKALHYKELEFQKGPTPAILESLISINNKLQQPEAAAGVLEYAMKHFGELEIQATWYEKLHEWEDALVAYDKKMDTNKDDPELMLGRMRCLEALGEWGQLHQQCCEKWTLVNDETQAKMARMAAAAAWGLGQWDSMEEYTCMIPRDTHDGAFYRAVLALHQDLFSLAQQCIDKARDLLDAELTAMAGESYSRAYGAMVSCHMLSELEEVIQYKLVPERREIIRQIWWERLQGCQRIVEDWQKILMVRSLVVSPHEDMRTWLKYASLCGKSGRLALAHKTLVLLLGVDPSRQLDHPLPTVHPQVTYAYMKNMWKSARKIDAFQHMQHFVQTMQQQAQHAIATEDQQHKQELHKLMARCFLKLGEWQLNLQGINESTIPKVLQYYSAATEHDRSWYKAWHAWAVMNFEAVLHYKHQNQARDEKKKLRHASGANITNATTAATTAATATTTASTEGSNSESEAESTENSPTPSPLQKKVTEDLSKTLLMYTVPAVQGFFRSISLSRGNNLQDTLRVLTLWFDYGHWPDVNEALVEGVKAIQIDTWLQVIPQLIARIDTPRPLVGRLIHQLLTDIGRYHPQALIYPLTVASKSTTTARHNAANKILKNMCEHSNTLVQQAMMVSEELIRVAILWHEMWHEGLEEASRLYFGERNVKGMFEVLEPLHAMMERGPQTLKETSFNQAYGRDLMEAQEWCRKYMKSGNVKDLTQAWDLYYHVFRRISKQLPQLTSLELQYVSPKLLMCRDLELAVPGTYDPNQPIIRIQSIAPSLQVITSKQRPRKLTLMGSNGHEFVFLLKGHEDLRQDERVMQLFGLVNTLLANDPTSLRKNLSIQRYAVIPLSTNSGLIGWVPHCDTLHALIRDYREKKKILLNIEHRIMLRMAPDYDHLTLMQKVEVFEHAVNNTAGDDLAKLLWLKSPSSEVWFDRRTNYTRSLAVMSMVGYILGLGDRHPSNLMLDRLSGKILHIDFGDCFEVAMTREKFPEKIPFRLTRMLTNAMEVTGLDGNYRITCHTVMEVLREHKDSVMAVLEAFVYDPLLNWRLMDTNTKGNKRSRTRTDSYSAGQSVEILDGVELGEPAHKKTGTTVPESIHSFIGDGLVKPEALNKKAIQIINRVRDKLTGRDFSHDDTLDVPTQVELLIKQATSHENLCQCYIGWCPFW

Row | SMILES | IC50 [nM]
1 | C[C@H]1COCCN1c1cc(C2(S(C)(=O)=O)CCOCC2)nc(-c2ccc(NC(=O)Nc3cnn(C)c3)cc2)n1 [Example 23d, 1-[4-[4-[(3S)-3-methylmorpholin-4-yl]-6-(4-methylsulfonyloxan-4-yl)pyrimidin-2-yl]phenyl]-3-(1-methylpyrazol-4-yl)urea] | 5.34
2 | C[C@H]1COCCN1c1cc(C2(S(=O)(=O)C3CC3)CCOCC2)nc(-c2ccc(NC(=O)NC3CC3)cc2)n1 [Example 23e, 3-cyclopropyl-1-[4-[4-(4-cyclopropylsulfonyloxan-4-yl)-6-[(3S)-3-methylmorpholin-4-yl]pyrimidin-2-yl]phenyl]urea] | 8.76
3 | CNC(=O)Nc1ccc(-c2nc(N3CCOC[C@@H]3C)cc(C3(S(=O)(=O)C4CC4)CCOCC3)n2)cc1 [Example 23f, 1-[4-[4-(4-cyclopropylsulfonyloxan-4-yl)-6-[(3S)-3-methylmorpholin-4-yl]pyrimidin-2-yl]phenyl]-3-methylurea] | 19.9
4 | C[C@H]1COCCN1c1cc(C2(S(=O)(=O)C3CC3)CCOCC2)nc(-c2ccc(NC(=O)NCCN(C)C)cc2)n1 [Example 23g, 1-[4-[4-(4-cyclopropylsulfonyloxan-4-yl)-6-[(3S)-3-methylmorpholin-4-yl]pyrimidin-2-yl]phenyl]-3-(2-dimethylaminoethyl)urea] | 1210
5 | C[C@H]1COCCN1c1cc(C2(S(=O)(=O)C3CC3)CCOCC2)nc(-c2ccc(NC(=O)NCCO)cc2)n1 [Example 23h, 1-[4-[4-(4-cyclopropylsulfonyloxan-4-yl)-6-[(3S)-3-methylmorpholin-4-yl]pyrimidin-2-yl]phenyl]-3-(2-hydroxyethyl)urea] | 8.08
6 | C[C@H]1COCCN1c1cc(C2(S(=O)(=O)C3CC3)CCOCC2)nc(-c2ccc(NC(=O)Nc3cnn(C)c3)cc2)n1 [Example 23i, 1-[4-[4-(4-cyclopropylsulfonyloxan-4-yl)-6-[(3S)-3-methylmorpholin-4-yl]pyrimidin-2-yl]phenyl]-3-(1-methylpyrazol-4-yl)urea] | 25.4
7 | CNC(=O)Nc1ccc(-c2nc(N3CCOC[C@@H]3C)cc(C3(S(=O)(=O)c4ccc(Cl)cc4)CCOCC3)n2)cc1 [Example 23j, 1-[4-[4-[4-(4-chlorophenyl)sulfonyloxan-4-yl]-6-[(3S)-3-methylmorpholin-4-yl]pyrimidin-2-yl]phenyl]-3-methylurea] | 31.4
8 | C[C@H]1COCCN1c1cc(C2(S(=O)(=O)c3ccc(Cl)cc3)CCOCC2)nc(-c2ccc(NC(=O)NCCN(C)C)cc2)n1 [Example 23k, 1-[4-[4-[4-(4-chlorophenyl)sulfonyloxan-4-yl]-6-[(3S)-3-methylmorpholin-4-yl]pyrimidin-2-yl]phenyl]-3-(2-dimethylaminoethyl)urea] | 1140
9 | C[C@H]1COCCN1c1cc(C2(S(=O)(=O)c3ccc(Cl)cc3)CCOCC2)nc(-c2ccc(NC(=O)NCCO)cc2)n1 [Example 23l, 1-[4-[4-[4-(4-chlorophenyl)sulfonyloxan-4-yl]-6-[(3S)-3-methylmorpholin-4-yl]pyrimidin-2-yl]phenyl]-3-(2-hydroxyethyl)urea] | 8.88
10 | C[C@H]1COCCN1c1cc(C2(S(=O)(=O)c3ccc(Cl)cc3)CCOCC2)nc(-c2ccc(NC(=O)Nc3cnn(C)c3)cc2)n1 [Example 23m, 1-[4-[4-[4-(4-chlorophenyl)sulfonyloxan-4-yl]-6-[(3S)-3-methylmorpholin-4-yl]pyrimidin-2-yl]phenyl]-3-(1-methylpyrazol-4-yl)urea] | 57.7
11 | C[C@H]1COCCN1c1cc(C2(S(=O)(=O)c3ccc(Cl)cc3)CCOCC2)nc(-c2ccc(NC(=O)NC3CC3)cc2)n1 [Example 24, 1-[4-[4-[4-(4-Chlorophenyl)sulfonyloxan-4-yl]-6-[(3S)-3-methylmorpholin-4-yl]pyrimidin-2-yl]phenyl]-3-cyclopropylurea] | 5.17
12 | Cc1csc(S(=O)(=O)C2(c3cc(N4CCOC[C@@H]4C)nc(-c4ccc(NC(=O)NC5CC5)cc4)n3)CC2)n1 [Example 25, 3-Cyclopropyl-1-[4-[4-[(3S)-3-methylmorpholin-4-yl]-6-[1-[(4-methyl-1,3-thiazol-2-yl)sulfonyl]cyclopropyl]pyrimidin-2-yl]phenyl]urea] | 1.55
13 | C[C@H]1COCCN1c1cc(C2(S(=O)(=O)C3CCCCC3)CC2)nc(-c2ccc(NC(=O)NC3CC3)cc2)n1 [Example 26, 1-[4-[4-(1-Cyclohexylsulfonylcyclopropyl)-6-[(3S)-3-methylmorpholin-4-yl]pyrimidin-2-yl]phenyl]-3-cyclopropylurea] | 6.05

The next lines start with the values.

Row | IC50 [nM] | SMILES
14 | 2.24 | Cc1csc(S(=O)(=O)C2(c3cc(N4CCOC[C@@H]4C)nc(-c4ccc(NC(=O)NC5CCC5)cc4)n3)CC2)n1 [Example 25a, 3-cyclobutyl-1-[4-[4-[(3S)-3-methylmorpholin-4-yl]-6-[1-[(4-methyl-1,3-thiazol-2-yl)sulfonyl]cyclopropyl]pyrimidin-2-yl]phenyl]urea]
15 | 0.817 | Cc1csc(S(=O)(=O)C2(c3cc(N4CCOC[C@@H]4C)nc(-c4ccc(NC(=O)Nc5ccccn5)cc4)n3)CC2)n1 [Example 25b, 1-[4-[4-[(3S)-3-methylmoprholin-4-yl]-6-[1-[(4-methyl-1,3-thiazol-2-yl)sulfonyl]cyclopropyl]pyrimidin-2-yl]phenyl]-3-pyridin-2-ylurea]
16 | 3.85 | Cc1csc(S(=O)(=O)C2(c3cc(N4CCOC[C@@H]4C)nc(-c4ccc(NC(=O)NCC(C)C)cc4)n3)CC2)n1 [Example 25c, 1-[4-[4-[(3S)-3-methylmorpholin-4-yl]-6-[1-[(4-methyl-1,3-thiazol-2-yl)sulfonyl]cyclopropyl]pyrimidin-2-yl]phenyl]-3-(2-methylpropyl)urea]
17 | 0.277 | CCNC(=O)Nc1ccc(-c2nc(N3CCOC[C@@H]3C)cc(C3(S(=O)(=O)c4nc(C)cs4)CC3)n2)cc1 [Example 25e, 1-ethyl-3-[4-[4-[(3S)-3-methylmorpholin-4-yl]-6-[1-[(4-methyl-1,3-thiazol-2-yl)sulfonyl]cyclpropyl]pyrimidin-2-yl]phenyl]urea]
18 | 54.7 | Cc1csc(S(=O)(=O)C2(c3cc(N4CCOC[C@@H]4C)nc(-c4ccc(NC(=O)NCCN(C)C)cc4)n3)CC2)n1 [Example 25f, 3-(2-dimethylaminoethyl)-1-[4-[4-[(3S)-3-methylmorpholin-4-yl]-6-[1-[(4-methyl-1,3-thiazol-2-yl)sulfonyl]cyclopropyl]pyrimidin-2-yl]phenyl]urea]
19 | 0.993 | CCCNC(=O)Nc1ccc(-c2nc(N3CCOC[C@@H]3C)cc(C3(S(=O)(=O)c4nc(C)cs4)CC3)n2)cc1 [Example 25h, 3-[4-[4-[(3S)-3-methylmorpholin-4-yl]-6-[1-[(4-methyl-1,3-thiazol-2-yl)sulfonyl]cyclopropyl]pyrimidin-2-yl]phenyl]-1-propylurea]
20 | 1 | CNC(=O)Nc1ccc(-c2nc(N3CCOC[C@@H]3C)cc(C3(S(=O)(=O)c4nc(C)cs4)CC3)n2)cc1 [Example 25i, 3-methyl-1-[4-[4-[(3S)-3-methylmorpholin-4-yl]-6-[1-[(4-methyl-1,3-thiazol-2-yl)sulfonyl]cyclopropyl]pyrimidin-2-yl]phenyl]urea]
21 | 5.76 | Cc1csc(S(=O)(=O)C2(c3cc(N4CCOC[C@@H]4C)nc(-c4ccc(NC(=O)Nc5ccc(C(F)(F)F)cc5)cc4)n3)CC2)n1 [Example 25j, 1-[4-[4-[(3S)-3-methylmorpholin-4-yl]-6-[1-[(4-methyl-1,3-thiazol-2-yl)sulfonyl]cyclopropyl]pyrimidin-2-yl]phenyl]-3-[4-(trifluoromethyl)phenyl]urea]
22 | 2.92 | Cc1csc(S(=O)(=O)C2(c3cc(N4CCOC[C@@H]4C)nc(-c4ccc(NC(=O)NC(C)(C)CO)cc4)n3)CC2)n1 [Example 25k, 3-(1-hydroxy-2-methylpropan-2-yl)-1-[4-[4-[(3S)-3-methylmorpholin-4-yl]-6-[1-[(4-methyl-1,3-thiazol-2-yl)sulfonyl]cyclopropyl]pyrimidin-2-yl]phenyl]urea]
23 | 0.956 | Cc1csc(S(=O)(=O)C2(c3cc(N4CCOC[C@@H]4C)nc(-c4ccc(NC(=O)NCCCO)cc4)n3)CC2)n1 [Example 25l, 3-(3-hydroxypropyl)-1-[4-[4-[(3S)-3-methylmorpholin-4-yl]-6-[1-[(4-methyl-1,3-thiazol-2-yl)sulfonyl]cyclopropyl]pyrimidin-2-yl]phenyl]urea]
24 | 0.25 | Cc1csc(S(=O)(=O)C2(c3cc(N4CCOC[C@@H]4C)nc(-c4ccc(NC(=O)Nc5cnn(C)c5)cc4)n3)CC2)n1 [Example 25m, 1-[4-[4-[(3S)-3-methylmorpholin-4-yl]-6-[1-[(4-methyl-1,3-thiazol-2-yl)sulfonyl]cyclopropyl]pyrimidin-2-yl]phenyl]-3-(1-methylpyrazol-4-yl)urea]
25 | 6.72 | C[C@H]1COCCN1c1cc(C2(S(=O)(=O)C3CCCCC3)CC2)nc(-c2ccc(NC(=O)NC3CCC3)cc2)n1 [Example 26a, 3-cyclobutyl-1-[4-[4-(1-cyclohexylsulfonylcyclopropyl)-6-[(3S)-3-methylmorpholin-4-yl]pyrimidin-2-yl]phenyl]urea]
26 | 3.9 | CCNC(=O)Nc1ccc(-c2nc(N3CCOC[C@@H]3C)cc(C3(S(=O)(=O)C4CCCCC4)CC3)n2)cc1 [Example 26b, 3-[4-[4-(1-cyclohexylsulfonylcyclopropyl)-6-[(3S)-3-methylmorpholin-4-yl]pyrimidin-2-yl]phenyl]-1-ethylurea]
27 | 119 | C[C@H]1COCCN1c1cc(C2(S(=O)(=O)C3CCCCC3)CC2)nc(-c2ccc(NC(=O)NCCN(C)C)cc2)n1 [Example 26c, 1-[4-[4-(1-cyclohexylsulfonylcyclopropyl)-6-[(3S)-3-methylmorpholin-4-yl]pyrimidin-2-yl]phenyl]-3-(2-dimethylaminoethyl)urea]
28 | 1.2 | C[C@H]1COCCN1c1cc(C2(S(=O)(=O)C3CCCCC3)CC2)nc(-c2ccc(NC(=O)NCCO)cc2)n1 [Example 26d, 1-[4-[4-(1-cyclohexylsulfonylcyclopropyl)-6-[(3S)-3-methylmorpholin-4-yl]pyrimidin-2-yl]phenyl]-3-(2-hydroxyethyl)urea]
